Measured values from patent publication US20100311741A1, “Bicyclosulfonyl Acid (BCSA) Compounds and Their Use as Therapeutic Agents” (INHIBOX LTD., priority 2007, published 2010).

| melting point | Structure (SMILES) |
| --- | --- |
| 188 to 190 °C | COc1cccc2c1C(CC(=O)NO)N(c1ccccc1)S2(=O)=O (stereo not shown) [Compound 54.1, 2-(4-Methoxy-1,1-dioxo-2-phenyl-2,3-dihydro-1H-benzo[d]isothiazol-3-yl)-N-hydroxyacetamide] |
| 204 to 206 °C | O=C(CC1c2c(Cl)cccc2S(=O)(=O)N1c1ccccc1)NO (stereo not shown) [Compound 54.2, 2-(4-Chloro-1,1-dioxo-2-phenyl-2,3-dihydro-1H-benzo[d]isothiazol-3-yl)-N-hydroxyacetamide] |
| 187 to 189 °C | O=C(CC1c2cccc(C(F)(F)F)c2S(=O)(=O)N1c1ccccc1)NO (stereo not shown) [Compound 54.3] |
| > 188 °C (dec.) | O=C(CC1c2cccc(Cl)c2S(=O)(=O)N1c1ccccc1)NO (stereo not shown) [Compound 54.7, 2-(7-Chloro-1,1-dioxo-2-phenyl-2,3-dihydro-1H-benzo[d]isothiazol-3-yl)-N-hydroxyacetamide] |
| > 161 °C (dec.) | COc1cccc2c1S(=O)(=O)N(c1ccccc1)C2CC(=O)NO (stereo not shown) [Compound 54.10, (7-Methoxy-1,1-dioxo-2-phenyl-2,3-dihydro-1H-benzo[d]isothiazol-3-yl)-N-hydroxyacetamide] |
| > 170 °C (dec.) | COc1cc(Cl)cc2c1S(=O)(=O)N(c1ccccc1)C2CC(=O)NO (stereo not shown) [Compound 54.11, (5-Chloro-7-Methoxy-1,1-dioxo-2-phenyl-2,3-dihydro-1H-benzo[d]isothiazol-3-yl)-N-hydroxyacetamide] |
| 184 to 188 °C (dec.) | COc1ccc2c(c1Cl)C(CC(=O)NO)N(c1ccccc1)S2(=O)=O (stereo not shown) [Compound 54.12, (4-Chloro-5-Methoxy-1,1-dioxo-2-phenyl-2,3-dihydro-1H-benzo[d]isothiazol-3-yl)-N-hydroxyacetamide] |
| 188 to 191 °C | O=C(NO)C1c2ccccc2S(=O)(=O)N1c1ccccc1 (stereo not shown) [Compound 62.1, 1,1-Dioxo-2-phenyl-2,3-dihydro-1H-benzo[d]isothiazole-3-carboxylic acid hydroxyamide] |
| 167 to 170 °C | O=C(NO)C1c2c(Cl)cccc2S(=O)(=O)N1c1ccccc1 (stereo not shown) [Compound 62.2, 4-Chloro-1,1-dioxo-2-phenyl-2,3-dihydro-1H-benzo[d]isothiazole-3-carboxylic acid hydroxyamide] |
| 147 to 148 °C | COc1cccc(N2C(CC(=O)NO)c3ccccc3S2(=O)=O)c1 (stereo not shown) [Compound (5.7), 2-[2-(3-Methoxyphenyl)-1,1-dioxo-2,3-dihydro-1H-benzo[d]isothiazol-3-yl]-N-hydroxyacetamide] |
| 185 to 186 °C | COc1ccc(N2C(CC(=O)NO)c3ccccc3S2(=O)=O)cc1 (stereo not shown) [Compound (5.8), 2-[2-(4-Methoxyphenyl)-1,1-dioxo-2,3-dihydro-1H-benzo[d]isothiazol-3-yl]-N-hydroxyacetamide] |
| 181 to 182 °C | O=C(CC1c2ccccc2S(=O)(=O)N1c1cccc(Oc2ccccc2)c1)NO (stereo not shown) [Compound (5.9), 2-[2-(3-Phenoxyphenyl)-1,1-dioxo-2,3-dihydro-1H-benzo[d]isothiazol-3-yl]-N-hydroxyacetamide] |
| 184 to 185 °C | O=C(CC1c2ccccc2S(=O)(=O)N1c1ccc(Cl)cc1)NO (stereo not shown) [Compound (5.10), 2-[2-(4-Chlorophenyl)-1,1-dioxo-2,3-dihydro-1H-benzo[d]isothiazol-3-yl]-N-hydroxyacetamide] |
| 197 to 198 °C (dec.) | CSc1ccc(N2C(CC(=O)NO)c3ccccc3S2(=O)=O)cc1 (stereo not shown) [Compound (5.20), 2-[1,1-Dioxo-2-(4-methylsulfanylphenyl)-2,3-dihydro-1H-benzo[d]isothiazol-3-yl]-N-hydroxyacetamide] |
| 207 to 208 °C (dec.) | O=C(CC1c2ccccc2S(=O)(=O)N1c1ccc(-c2ccccc2)cc1)NO (stereo not shown) [Compound (5.23), 2-(2-Biphenyl-4-yl-1,1-dioxo-2,3-dihydro-1H-benzo[d]isothiazol-3-yl)-N-hydroxyacetamide] |
| 174 to 175 °C | O=C(CC1c2ccccc2S(=O)(=O)N1c1ccc(Oc2ccccc2)cc1)NO (stereo not shown) [Compound (5.24), 2-[1,1-Dioxo-2-(4-phenoxy-phenyl)-2,3-dihydro-1H-benzo[d]isothiazol-3-yl]-N-hydroxyacetamide] |
| 186 to 187 °C | O=C(CC1c2ccccc2S(=O)(=O)N1c1ccc(OCc2ccccc2)cc1)NO (stereo not shown) [Compound (5.25), 2-[2-(4-Benzyloxy-phenyl)-1,1-dioxo-2,3-dihydro-1H-benzo[d]isothiazol-3-yl]-N-hydroxyacetamide] |
| 192 to 194 °C (dec.) | O=C(CC1c2ccccc2S(=O)(=O)N1c1ccc(-n2cccc2)cc1)NO (stereo not shown) [Compound (5.26), 2-[1,1-Dioxo-2-(4-pyrrol-1-yl-phenyl)-2,3-dihydro-1H-benzo[d]isothiazol-3-yl]-N-hydroxyacetamide] |

| melting point | Structure (SMILES) |
| --- | --- |
| 199 to 201 °C (dec.) | O=C(CC1c2ccccc2S(=O)(=O)N1c1ccc(-n2ccnc2)cc1)NO (stereo not shown) [Compound (5.27), 2-[2-(4-Imidazol-1-yl-phenyl)-1,1-dioxo-2,3-dihydro-1H-benzo[d]isothiazol-3-yl]-N-hydroxyacetamide] |
| 205 to 207 °C (dec.) | O=C(CC1c2ccccc2S(=O)(=O)N1c1ccc(-n2cncn2)cc1)NO (stereo not shown) [Compound (5.28), 2-[1,1-Dioxo-2-(4-[1,2,4]triazol-1-yl-phenyl)-2,3-dihydro-1H-benzo[d]isothiazol-3-yl]-N-hydroxyacetamide] |
| 138 to 140 °C (dec.) | O=C(CC1c2ccccc2S(=O)(=O)N1c1ccc(-c2cnco2)cc1)NO (stereo not shown) [Compound (5.29), 2-[2-(4-Oxazol-5-yl-phenyl)-1,1-dioxo-2,3-dihydro-1H-benzo[d]isothiazol-3-yl]-N-hydroxyacetamide] |
| 179 to 181 °C (dec.) | Cc1nc(-c2ccc(N3C(CC(=O)NO)c4ccccc4S3(=O)=O)cc2)cs1 (stereo not shown) [Compound (5.30), 2-{2-[4-(2-Methylthiazol-4-yl)phenyl]-1,1-dioxo-2,3-dihydro-1H-benzo[d]isothiazol-3-yl}-N-hydroxyacetamide] |
| 185 to 186 °C | CN(C)c1ccc(N2C(CC(=O)NO)c3ccccc3S2(=O)=O)cc1 (stereo not shown) [Compound (5.31), 2-[2-(4-Dimethylaminophenyl)-1,1-dioxo-2,3-dihydro-1H-benzo[d]isothiazol-3-yl]-N-hydroxyacetamide] |
| 204 to 206 °C | O=C(CC1c2ccccc2S(=O)(=O)N1c1ccc(N2CCOCC2)cc1)NO (stereo not shown) [Compound (5.32), 2-[2-(4-Morpholin-4-ylphenyl)-1,1-dioxo-2,3-dihydro-1H-benzo[d]isothiazol-3-yl]-N-hydroxyacetamide] |
| 177 to 178 °C | CCOc1ccc(N2C(CC(=O)NO)c3ccccc3S2(=O)=O)cc1 (stereo not shown) [Compound (5.33), 2-[2-(4-Ethoxyphenyl)-1,1-dioxo-2,3-dihydro-1H-benzo[d]isothiazol-3-yl]-N-hydroxyacetamide] |
| 145 to 147 °C (dec.) | O=C(CC1c2ccccc2S(=O)(=O)N1c1cccc(F)c1)NO (stereo not shown) [Compound (5.36), 2-[2-(3-Fluoro-phenyl)-1,1-dioxo-2,3-dihydro-1H-benzo[d]isothiazol-3-yl]-N-hydroxyacetamide] |
| 152 to 154 °C | O=C(CC1NS(=O)(=O)c2ccccc21)NO (stereo not shown) [Compound (5.37), 2-(1,1-Dioxo-2,3-dihydro-1H-benzo[d]isothiazol-3-yl)-N-hydroxyacetamide] |
| 189 to 190 °C | COc1ccc(N2C(CC(=O)NO)c3ccccc3S2(=O)=O)cn1 (stereo not shown) [Compound (5.40), 2-[2-(6-Methoxy-pyridin-3-yl)-1,1-dioxo-2,3-dihydro-1Hbenzo[d]isothiazol-3-yl]-N-hydroxyacetamide] |
| 141 to 143 °C | O=C(CC1c2ccccc2S(=O)(=O)N1C1CCN(Cc2ccccc2)CC1)NO (stereo not shown) [Compound (5.42), 2-[2-(1-Benzylpiperidin-4-yl)-1,1-dioxo-2,3-dihydro-1H-benzo[d]isothiazol-3-yl]-N-hydroxyacetamide] |
| 166 to 168 °C (dec.) | C=CCOc1ccc(N2C(CC(=O)NO)c3ccccc3S2(=O)=O)cc1 (stereo not shown) [Compound (5.47), 2-[2-(4-Allyloxy-phenyl)-1,1-dioxo-2,3-dihydro-1H-benzo[d]isothiazol-3-yl]-N-hydroxyacetamide] |
| 212 to 214 °C (dec.) | O=C(CC1c2ccccc2S(=O)(=O)N1c1ccc(OCc2ccncc2)cc1)NO (stereo not shown) [Compound (5.48), 2-{1,1-Dioxo-2-[4-(pyridin-4-ylmethoxy)phenyl]-2,3-dihydro-1H-benzo[d]isothiazol-3-yl}-N-hydroxyacetamide] |
| > 170 °C (dec.) | O=C(CC1c2ccccc2S(=O)(=O)N1c1ccc(OCc2ccccn2)cc1)NO (stereo not shown) [Compound (5.50), 2-{1,1-Dioxo-2-[4-(pyridin-2-ylmethoxy)phenyl]-2,3-dihydro-1H-benzo[d]isothiazol-3-yl}-N-hydroxyacetamide] |
| 135 to 137 °C (dec.) | CCC#CCOc1ccc(N2C(CC(=O)NO)c3ccccc3S2(=O)=O)cc1 (stereo not shown) [Compound (5.52), 2-[1,1-Dioxo-2-(4-pent-2-ynyloxy-phenyl)-2,3-dihydro-1H-benzo[d]isothiazol-3-yl]-N-hydroxyacetamide] |
| 155 to 157 °C (dec.) | C#CCOc1ccc(N2C(CC(=O)NO)c3ccccc3S2(=O)=O)cc1 (stereo not shown) [Compound (5.53), 2-[1,1-Dioxo-2-(4-prop-2-ynyloxy-phenyl)-2,3-dihydro-1H-benzo[d]isothiazol-3-yl]-N-hydroxyacetamide] |
| 148 to 150 °C (dec.) | C#CCCOc1ccc(N2C(CC(=O)NO)c3ccccc3S2(=O)=O)cc1 (stereo not shown) [Compound (5.54), 2-[2-(4-But-3-ynyloxy-phenyl)-1,1-dioxo-2,3-dihydro-1H-benzo[d]isothiazol-3-yl]-N-hydroxyacetamide] |
| 200 to 204 °C (dec.) | Cc1cc(C(C)Oc2ccc(N3C(CC(=O)NO)c4ccccc4S3(=O)=O)cc2)c2ccccc2n1 (stereo not shown) [Compound (5.56), 2-(2-{4-[1-(2-Methylquinolin-4-yl)ethoxy]-phenyl}-1,1-dioxo-2,3-dihydro-1H-benzo[d]isothiazol-3-yl)-N-hydroxyacetamide] |

| Structure (SMILES) | melting point |
| --- | --- |
| CCCCOc1ccc(N2C(CC(=O)NO)c3ccccc3S2(=O)=O)cc1 (stereo not shown) [Compound (5.34), 2-[2-(4-Butoxyphenyl)-1,1-dioxo-2,3-dihydro-1H-benzo[d]isothiazol-3-yl]-N-hydroxyacetamide] | 165 to 166 °C |
